Results taken from patent publication US20210030843A1, “COMPOSITION AND METHOD FOR REDUCING CHEMOTHERAPY-INDUCED NEUTROPENIA VIA THE ADMINISTRATION OF PLINABULIN AND A G-CSF AGENT” (BEYONDSPRING PHARMACEUTICALS, INC., priority 2018, published 2021).
Several values for one entry are separate records, joined by “and”; a condition that tells them apart may be missing. Equal values may be shown once. Read-outs that look alike come from different tables or passages of the source.

Legend:
[1] = test system: Patients with solid tumors; experiment: Plinabulin monotherapy in patients with solid tumors, laboratory parameters; assay type: in vivo, human; details: in the absence of chemotherapy
[2] = test system: neutropenia caused by chemotherapies; experiment: Animal model studies of chemotherapy-caused neutropenia; assay type: in vivo; details: docetaxel, cisplatin, adriamycin, cyclosphosphamide, topotecan, gemcitabine
[3] = test system: patients with solid tumors receiving docetaxel myelosuppressive chemotherapy; experiment: Example 1: randomized, double blind study, plinabulin versus pegfilgrastim with docetaxel; assay type: in vivo, human; details: for change of neutrophil count through time (FIG. 1): after docetaxel 75 mg/m^2, pegfilgrastim 6 mg, plinabulin 5, 10, 20 mg/m^2
Description: A randomized, double blind study to evaluate duration of severe neutropenia with plinabulin versus pegfilgrastim in patients with solid tumors receiving docetaxel myelosuppressive chemotherapy was performed. Patients were randomly assigned to the following arms (with the respective sample sizes): Arm 1: Docetaxel (75 mg/m^2)+Pegfilgrastim (6 mg) (n=14); Arm 2: Docetaxel (75 mg/m^2)+Plinabulin (20 mg/m^2) (n=14); Arm 3: Docetaxel (75 mg/m^2)+Plinabulin (10 mg/m^2) (n=14); and Arm 4: Docetaxel (75 mg/m^2)+Plinabulin (5 mg/m^2) (n=13).

[4] = test system: patients (docetaxel-induced neutropenia); details: for proportion of patients with Grade 4 neutropenia: Cycle 1, docetaxel treatment alone vs addition of plinabulin to docetaxel, ANC <0.5×10^9/L, p<0.0003
[5] = test system: patients; details: Plinabulin
[6] = test system: NSCLC patients (pts) with a measurable lesion; experiment: Phase 2 trial, addition of Plinabulin to Docetaxel in NSCLC patients; details: human, in vivo
[7] = test system: Patients with first line breast cancer receiving TAC; experiment: Example 2: Phase 2 open label study, plinabulin and pegfilgrastim after TAC; assay type: in vivo, human; details: pegfilgrastim 6 mg
Description: A multicenter, randomized study, involving G-CSF and plinabulin was performed. The Phase 2 portion was randomized and open label. The decision to complete the Phase 2 portion of the study as open label was made to reduce the complexities of study conduct and to allow for the assessment, via QoL, of same-day plinabulin dosing (i.e on the day of chemotherapy dosing) versus next day dosing with G-CSF. Patients with first line breast cancer were enrolled in the study.
Patients received up to 4 cycles of a docetaxel/doxorubicin/cyclophosphamide based chemotherapy regimen, every 3 weeks (21 days). On Day 1 of Cycle 1, all patients receive docetaxel (75 mg/m^2), doxorubicin (50 mg/m^2), and cyclophosphamide (500 mg/m^2)-Taxotere, Adriamycin and cyclophosphamide (TAC).
During Cycles 2 to 4, the doxorubicin component may be omitted at the discretion of the investigator, i.e., TC can be administered instead of TAC.
The eligibility of all patients was determined during a 28-day screening period.
Phase 2 (Open Label): In Phase 2, patients were randomly assigned to one of the treatment arms, with the arm designation and planned intervention as shown in Table 2.
Patients have been randomized to receive TAC (or TC for Cycles 2 to 4)+pegfilgrastim or a combination of plinabulin and pegfilgrastim in each of Arms 1, 2, 3, and 4.
In Phase 2 (Open Label), Cycles 1 to 4 consisted of TAC (or TC for Cycles 2 to 4) administered IV on Day 1, every 21 days. Patients in Arms 2 and 3 received a single dose of plinabulin over 30 minutes (±5 minutes), 30 minutes after the end of the TAC (or TC for Cycles 2 to 4) infusion on Day 1. On Day 2 of each cycle (≥24 hours after completing chemotherapy) patients in […] received a single dose of pegfilgrastim (6.0 mg) (subcutaneous injection) in an open label treatment.
Docetaxel: Docetaxel was administered at a dose of 75 mg/m2. Administration was carried out with a 1-hour IV infusion per institutional protocol at the dose prescribed by this clinical study protocol (75 mg/m2). Dexamethasone (16 mg per day administered as 8 mg twice daily, or as per institution standard) was given on the day before, the day of (Day 1), and the day following docetaxel infusion (Day 2).
Doxorubicin: Doxorubicin was administered at a dose of 50 mg/m2. Doxorubicin is potentially cardiotoxic. Risk for doxorubicin cardiotoxicity increases with the cumulative lifetime dose of doxorubicin. At the doxorubicin dose and schedule in this study, patients received a cumulative doxorubicin dose of […] of body surface area, below the threshold for symptomatic cardiac dysfunction. Patients were monitored, per institutional standard, for doxorubicin cardiotoxicity.
Cyclophosphamide: Cyclophosphamide was administered at a dose of 500 mg/m^2.
TAC Regimen: All patients received 3 week cycles of TAC chemotherapy. In each cycle, doxorubicin (50 mg/m2) given as a 15-minute IV infusion was administered first, followed immediately by cyclophosphamide (500 mg/m2) given as a 30-minute IV infusion, and then by docetaxel (75 mg/m2) administered as 1-hour IV infusion (the infusion times stated are approximate).

[8] = test system: patients; details: most common adverse reactions; cited from earlier work
[9] = test system: patients; details: G-CSF, cited from earlier work
[10] = Table 4, alone or with plinabulin 20 mg/m^2
[11] = cycle 1 after TAC, breast cancer, alone or with plinabulin 20 mg/m^2

For `CC(C)(C)c1[nH]cnc1/C=c1\[nH]c(=O)/c(=C/c2ccccc2)[nH]c1=O` [Plinabulin, (3Z,6Z)-3-Benzylidene-6-{[5-(2-methyl-2-propanyl)-1H-imidazol-4-yl]methylene}-2,5-piperazinedione], the “changes in hematology or chemistry laboratory parameters” value [1] was “did not experience any clinically significant deleterious changes”, the “prevention of neutropenia caused by chemotherapies” value [2] was “prevent neutropenia” and the “change of neutrophil count through time (FIG. 1)” value [3] was “started to rise again on day 10”. The “treating neutropenia induced by chemotherapeutic agent” value ([3]; docetaxel 75 mg/m^2) was “effective”, the “overshot of the ANC during recovery” value ([3]; in vivo) was “prevented” and the “Grade 3 transient hypertension, patients” value ([4]; 20 mg/m^2 plinabulin) was 5%. For the same molecule, the “Grade 3 transient hypertension, patients” value ([4]; 30 mg/m^2 plinabulin) was 20%, the “proportion of patients with Grade 4 neutropenia” value [4] was 4.6% and the “clinical sequelae associated with docetaxel-induced neutropenia (sepsis, infections, hospitalizations, docetaxel dose reductions, G-CSF use)” value ([4]; human, in vivo) was “reduced”. For the same molecule, the “bone pain, patients” value ([4]; patients receiving plinabulin) was 4%, the “Bone Pain (% of patients)” value [5] was less than 4% and the “Hospitalization (% of patients)” value [5] was 6%. For the same molecule, the “Immune-Related AEs (IR-AEs)” value [6] was “without increasing”.

With `CC(=O)O[C@@]12CO[C@@H]1C[C@H](O)[C@@]1(C)C(=O)[C@H](O)C3=C(C)[C@@H](OC(=O)[C@H](O)[C@@H](NC(=O)OC(C)(C)C)c4ccccc4)C[C@@](O)([C@@H](OC(=O)c4ccccc4)[C@H]21)C3(C)C` [docetaxel, reference compound] the “proportion of patients with Grade 4 neutropenia” value [4] was 33.3%.

B1: pegfilgrastim: colony-stimulating factor that acts on hematopoietic cells by binding to specific cell surface receptors (protein, chains of the INN, looked up)
chain: TPLGPASSLPQSFLLKCLEQVRKIQGDGAALQEKLCATYKLCHPEELVLLGHSLGIPWAPLSSCPSQALQLAGCLSQLHSGLFLYQGLLQALEGISPELGPTLDTLQLDVADFATTIWQQMEELGMAPALQPTQGAMPAFASAFQRRAGGVLVASHLQSFLEVSYRVLRHLAQP
modifications: PEG
In the case of B1, the “change of neutrophil count through time (FIG. 1)” value [3] is reported as “began to drop after 10 days”, the Anti-cancer [7, 10] is reported as “No” and the “DSN (grade 3/4)” value [7, 10] is reported as “Well over 1 day”. The “% neutropenia (grade 4)” value [7, 11] was 57% and > 50%, the “DSN (grade 3/4)” value [7, 11] was 1.4 ± 1.0 and the “patients with NLR greater than 5 (FIG. 6)” value [7, 11] was 76%. The “ANC nadir of median ANC (FIG. 2)” value ([7]; first 10 days of cycle 1, alone or with plinabulin 20 mg/m2) was “within the grade 3/4 neutropenia range”, the “Median ANC Nadir” value ([7]; alone or with plinabulin 20 mg/m^2) was 0.47 10^9 cells/L and the “bone pain, patients” value [8] was 31%. The “pain in an extremity, patients” value [8] was 9%.

B2: G-CSF: Granulocyte-colony stimulating factor: compounds or factors that stimulate proliferation, differentiation, commitment and end cell functional activation of granulocytes (protein, UniProt P09919 31-207, looked up)
Granulocyte …: TPLGPASSLPQSFLLKCLEQVRKIQGDGAALQEKLVSECATYKLCHPEELVLLGHSLGIPWAPLSSCPSQALQLAGCLSQLHSGLFLYQGLLQALEGISPELGPTLDTLQLDVADFATTIWQQMEELGMAPALQPTQGAMPAFASAFQRRAGGVLVASHLQSFLEVSYRVLRHLAQP
In the case of B2, the “Hospitalization (% of patients)” value [9] is given as 20% and the “Bone Pain (% of patients)” value ([9]; footnote mark 1) is given as greater than 20%^1.
